Assays:
[1] = test system: oxacillin-susceptible Staphylococcus aureus (OSSA); assay: Antibiotic effectiveness test with the photoelectrical device, control sample containing OSSA and oxacillin; format: cell-based; conditions: oxacillin about 4 μg/ml in TSB, initial 6×10^4 CFU/ml
Protocol: FIG. 3A is an electric current-voltage curve obtained by the photoelectrical device of the present invention for detecting an effectiveness of an antibiotic on bacteria. In the method for testing the effectiveness of an antibiotic on bacteria of the present invention, firstly, a fluid sample containing bacteria and an antibiotic is prepared, wherein the bacterial concentration of the fluid sample is between 10^4 and 10^5 CFU/ml. Use FIG. 3A as an example, the fluid sample to be detected contains an antibiotic: oxacillin, and bacteria: oxacillin-resistant Staphylococcus aureus (ORSA, hereinafter as ORSA for short). There is also another control sample used as a control group containing oxacillin and oxacillin-susceptible Staphylococcus aureus (OSSA, hereinafter as OSSA for short). In FIG. 3A, curve B3 is the background information and is drawn by detecting a sterile fluid sample. […]
(§1) FIG. 3B is a diagram illustrating the relationship between the change rate of electric current and the incubation time measured on the photoelectric device 100 after being incubated for different periods of time based on FIG. 3A, wherein the vertical axis represents the change rate of electric current and its definition is the same as the above mathematical formula (1), while the horizontal axis represents the incubation time (also referred to as incubation period). […]

[2] = test system: oxacillin-resistant Staphylococcus aureus (ORSA); assay: Antibiotic effectiveness test with the photoelectrical device, fluid sample containing ORSA and oxacillin; format: cell-based
Protocol: FIG. 3A is an electric current-voltage curve obtained by the photoelectrical device of the present invention for detecting an effectiveness of an antibiotic on bacteria. In the method for testing the effectiveness of an antibiotic on bacteria of the present invention, firstly, a fluid sample containing bacteria and an antibiotic is prepared, wherein the bacterial concentration of the fluid sample is between 10^4 and 10^5 CFU/ml. Use FIG. 3A as an example, the fluid sample to be detected contains an antibiotic: oxacillin, and bacteria: oxacillin-resistant Staphylococcus aureus (ORSA, hereinafter as ORSA for short). There is also another control sample used as a control group containing oxacillin and oxacillin-susceptible Staphylococcus aureus (OSSA, hereinafter as OSSA for short). In FIG. 3A, curve B3 is the background information and is drawn by detecting a sterile fluid sample. Curve OS31 is drawn by detecting the control sample containing OSSA and oxacillin, and curve OR31 is drawn by detecting a fluid sample containing ORSA and oxacillin.
Both the above fluid sample and the control sample are added with oxacillin of a concentration of about 4 μg/ml in the tryptic soy broth (TSB) to incubate OSSA and ORSA respectively, and both of them respectively contain OSSA and ORSA with a bacterial concentration of 6×10^4 CFU/ml. After preparing the above fluid sample and the control sample, the bacteria (ORSA) in the fluid sample and the bacteria (OSSA) in the control sample are incubated, wherein the time for incubating the bacteria can be more than 3 hours, for example, 4 hours. […]
as §1

Compound: Cc1onc(-c2ccccc2)c1C(=O)N[C@@H]1C(=O)N2[C@@H]1SC(C)(C)[C@@H]2C(=O)O [oxacillin]
- change in the change rate of electric current of the OSSA sample as incubation time increases ([1]; FIG. 3B curve OS32): no significant change
- inhibition of OSSA reproduction (conclusion from change rate of electric current) ([1]; increasing incubation time): inhibited by oxacillin and difficult to reproduce
- change rate of electric current of the ORSA fluid sample ([2]; oxacillin about 4 μg/ml in TSB, initial 6×10^4 CFU/ml, after 4 hours of incubation time, FIG. 3B curve OR32): more than 10%
- inhibition of ORSA reproduction (conclusion from change rate of electric current) ([2]; oxacillin about 4 μg/ml in TSB, initial 6×10^4 CFU/ml, increasing incubation time): not inhibited by oxacillin
- difference between the change rates of electric current of the ORSA fluid sample and the OSSA control sample ([2]; oxacillin about 4 μg/ml, after more than 3 hours of incubation period, FIG. 3B): ≥ 4%

Reference: patent US11143585B2, “Photoelectrical device for concentration detection, method for concentration detection thereof and method for testing an antibiotic susceptibility on bacteria” (priority 2018, dated 2021)
